Source: patent publication US20260234136A1, “ISOXAZOLIDINES AS RIPK1 INHIBITORS AND USE THEREOF” (GENZYME CORPORATION, priority 2023, published 2026)

Test system: U937 cells
Experiment: Cellular assay in U937 cells to measure the activity of RIPK1-inhibitors on cell death (necroptosis)
Assay type: cell-based
Conditions: Homo sapiens, U-937, 50 μM zVAD.fmk and 100 ng/ml recombinant human TNFα, overnight (18 to 24 hrs), MTS readout
Procedure: Absorbance of formazan was read at 490 nm. The inhibitory activity of the test compound was quantified in a concentration response curve (CRC) experiment.
Compounds were obtained as 10 mM stock solutions and were diluted 1 to 10 volumes with DMSO to yield a 1 mM solution. From this solution 2 μl were diluted with 998 μl growth medium.
U937 cells were cultured in RPMI1640 Glutamax and 10% heat inactivated FBS. […] 50 μl of compound dilutions, as described in Cellular assay in U937 cells, were added and the cell suspension incubated overnight (18 to 24 hrs) at 37° C., 5% CO2 in a humidified atmosphere (95% rH).
CellTiter 96 Aqueous reagent was mixed (100 μl PMS (phenazine methosulfate) solution/2 ml MTS (3-(4,5-[…])-5-(3-carboxymethoxyphenyl)-2-(4-sulfophenyl)-2H-tetrazolium, inner salt) solution) and 20 μl were added per well. After 4 hrs incubation at 37° C. (5% CO2 95% rH) optical density was measured at 490 nm on a microplate reader (Tecan Infinite M1000).
The % inhibition is expressed as percentage of the maximal inhibition value obtained in the absence of TNFα/zVAD.fmc.

Q: `Cc1ncc([C@@H]2CCON2C(=O)C2CCN(c3nccc(C4CCO4)n3)CC2)cc1F` (single isomer, unassigned) [Example 98] was tested. Which IC50 did it give?
A: 269 nM

Q: Which IC50 does the source give for `O=C(C1CCN(c2cc(-c3cccnc3)ncn2)CC1)N1OCC[C@H]1c1cncc(F)c1` [Example 1, (S)-(3-(5-fluoropyridin-3-yl)isoxazolidin-2-yl)(1-(6-(pyridin-3-yl)pyrimidin-4-yl)piperidin-4-yl)methanone] here?
A: 37 nM

Q: With `O=C1OCCN1c1nc(N2CCC(C(=O)N3OCC[C@H]3c3cnccn3)CC2)ncc1F` [Example 5, 3-[5-fluoro-2-[4-[(3S)-3-pyrazin-2-ylisoxazolidine-2-carbonyl]-1-piperidyl]pyrimidin-4-yl]oxazolidin-2-one] as the molecule, how does the IC50 read?
A: 5 nM

Q: With `Cc1nc([C@@H]2CCON2C(=O)C2CCN(c3cc(-n4ccnc4C)ncn3)CC2)cs1` [Example 7, [1-[6-(2-methylimidazol-1-yl)pyrimidin-4-yl]-4-piperidyl]-[(3S)-3-(2-methylthiazol-4-yl)isoxazolidin-2-yl]methanone] as the molecule, how does the IC50 read?
A: 9 nM

Q: Which IC50 does the source give for `Cc1ccc([C@@H]2CCON2C(=O)C2CCN(c3ncc(F)c(-n4cccn4)n3)CC2)cn1` [Example 10, [1-(5-fluoro-4-pyrazol-1-yl-pyrimidin-2-yl)-4-piperidyl]-[(3S)-3-(6-methyl-3-pyridyl)isoxazolidin-2-yl]methanone] here?
A: 4 nM

Q: For `O=C(C1CCN(c2nc(-c3ncco3)ncc2F)CC1)N1OCC[C@H]1c1cnccn1` [Example 13, [1-(5-fluoro-2-oxazol-2-yl-pyrimidin-4-yl)-4-piperidyl]-[(3S)-3-pyrazin-2-ylisoxazolidin-2-yl]methanone], which IC50 is on record?
A: 27 nM

Q: Which IC50 does the source give for `Cc1ccc([C@@H]2CCON2C(=O)C2CCN(c3nccc(-c4ccnn4C)n3)CC2)cn1` [Example 15, [1-[4-(2-methylpyrazol-3-yl)pyrimidin-2-yl]-4-piperidyl]-[(3S)-3-(6-methyl-3-pyridyl)isoxazolidin-2-yl]methanone] here?
A: 1 nM

Q: With `Cc1cnn(-c2cc(N3CCC(C(=O)N4OCC[C@H]4c4ccc(C)nc4)CC3)ncn2)c1` [Example 17, [1-[6-(4-methylpyrazol-1-yl)pyrimidin-4-yl]-4-piperidyl]-[(3S)-3-(6-methyl-3-pyridyl)isoxazolidin-2-yl]methanone] as the molecule, how does the IC50 read?
A: 39 nM

Q: `Cc1ccc([C@@H]2CCON2C(=O)C2CCN(c3cc(-c4ccnn4C)ncn3)CC2)cn1` [Example 18, [1-[6-(2-methylpyrazol-3-yl)pyrimidin-4-yl]-4-piperidyl]-[(3S)-3-(6-methyl-3-pyridyl)isoxazolidin-2-yl]methanone] was tested. Which IC50 did it give?
A: 70 nM

Q: With `Cc1cn(-c2nc(N3CCC(C(=O)N4OCC[C@H]4c4cnccn4)CC3)ncc2F)c(C)n1` [Example 22, [1-[4-(2,4-dimethylimidazol-1-yl)-5-fluoro-pyrimidin-2-yl]-4-piperidyl]-[(3S)-3-pyrazin-2-ylisoxazolidin-2-yl]methanone] as the molecule, how does the IC50 read?
A: 2 nM

Q: How did the IC50 turn out when `Cc1nccn1-c1ncnc(N2CCC(C(=O)N3OCC[C@H]3c3cnccn3)CC2)n1` [Example 26, (S)-(1-(4-(2-methyl-1H-imidazol-1-yl)-1,3,5-triazin-2-yl)piperidin-4-yl)(3-(pyrazin-2-yl)isoxazolidin-2-yl)methanone] was run?
A: 5 nM

Q: For `O=C(C1CCN(c2ncc(F)c(-c3cncs3)n2)CC1)N1OCC[C@H]1c1cnccn1` [Example 27, (S)-(1-(5-fluoro-4-(thiazol-5-yl)pyrimidin-2-yl)piperidin-4-yl)(3-(pyrazin-2-yl)isoxazolidin-2-yl)methanone], which IC50 is on record?
A: 1 nM

Q: With `Cn1nccc1-c1cc(N2CCC(C(=O)N3OCC[C@H]3c3cnccn3)CC2)ncn1` [Example 28, (S)-(1-(6-(1-methyl-1H-pyrazol-5-yl)pyrimidin-4-yl)piperidin-4-yl)(3-(pyrazin-2-yl)isoxazolidin-2-yl)methanone] as the molecule, how does the IC50 read?
A: 43 nM

Q: Which IC50 does the source give for `O=C(C1CCN(c2ncc(F)c(-n3cccn3)n2)CC1)N1OCC[C@H]1c1cnccn1` [Example 32, (S)-(1-(5-fluoro-4-(1H-pyrazol-1-yl)pyrimidin-2-yl)piperidin-4-yl)(3-(pyrazin-2-yl)isoxazolidin-2-yl)methanone] here?
A: 1 nM

Q: `Cc1ccc([C@@H]2CCON2C(=O)C2CCN(c3ncnc(-n4ccnc4C)n3)CC2)cn1` [Example 35, [1-[4-(2-methylimidazol-1-yl)-1,3,5-triazin-2-yl]piperidin-4-yl]-[(3S)-3-(6-methylpyridin-3-yl)-1,2-oxazolidin-2-yl]methanone] was tested. Which IC50 did it give?
A: 2 nM

Q: For `Cc1cncc([C@@H]2CCON2C(=O)C2CCN(c3nccc(N4CCOC4=O)n3)CC2)c1` [Example 36, 3-[2-[4-[(3S)-3-(5-methyl-3-pyridyl)isoxazolidine-2-carbonyl]-1-piperidyl]pyrimidin-4-yl]oxazolidin-2-one], which IC50 is on record?
A: 25 nM

Q: `Cn1nccc1-c1cc(N2CC[C@@H](C(=O)N3OCC[C@H]3c3cnccn3)C3(CC3)C2)ncn1` [Example 39, [(8R)-5-[6-(2-methylpyrazol-3-yl)pyrimidin-4-yl]-5-azaspiro[2.5]octan-8-yl]-[(3S)-3-pyrazin-2-yl-1,2-oxazolidin-2-yl]methanone] was tested. Which IC50 did it give?
A: 20 nM

Q: With `Cc1nc([C@@H]2CCON2C(=O)[C@@H]2CCN(c3cc(-c4ncnn4C)ncn3)CC23CC3)cs1` [Example 41, [(3S)-3-(2-methyl-1,3-thiazol-4-yl)-1,2-oxazolidin-2-yl]-[(8R)-5-[6-(2-methyl-1,2,4-triazol-3-yl)pyrimidin-4-yl]-5-azaspiro[2.5]octan-8-yl]methanone] as the molecule, how does the IC50 read?
A: 44 nM

Q: `Cc1ncc([C@@H]2CCON2C(=O)C2CCN(c3cc(-c4ncnn4C)ncn3)CC2)cc1F` [Example 49, [(3S)-3-(5-fluoro-6-methylpyridin-3-yl)-1,2-oxazolidin-2-yl]-[1-[6-(2-methyl-1,2,4-triazol-3-yl)pyrimidin-4-yl]piperidin-4-yl]methanone] was tested. Which IC50 did it give?
A: 15 nM

Q: With `Cc1cncc([C@@H]2CCON2C(=O)C2CCN(c3nccc(N4CCC5(CC5)C4=O)n3)CC2)c1` [Example 51, 5-[2-[4-[(3S)-3-(5-methylpyridin-3-yl)-1,2-oxazolidine-2-carbonyl]piperidin-1-yl]pyrimidin-4-yl]-5-azaspiro[2.4]heptan-4-one] as the molecule, how does the IC50 read?
A: 26 nM

Q: How did the IC50 turn out when `Cc1nc([C@@H]2CCON2C(=O)C2CCN(c3nccc(N4CCC5(CC5)C4=O)n3)CC2)co1` [Example 54, 5-[2-[4-[(3S)-3-(2-methyl-1,3-oxazol-4-yl)-1,2-oxazolidine-2-carbonyl]piperidin-1-yl]pyrimidin-4-yl]-5-azaspiro[2.4]heptan-4-one] was run?
A: 51 nM

Q: With `Cc1cnc([C@@H]2CCON2C(=O)C2CCN(c3nccc(N4CCCC4=O)n3)CC2)cn1` [Example 55, 1-[2-[4-[(3S)-3-(5-methylpyrazin-2-yl)-1,2-oxazolidine-2-carbonyl]piperidin-1-yl]pyrimidin-4-yl]pyrrolidin-2-one] as the molecule, how does the IC50 read?
A: 78 nM

Q: Which IC50 does the source give for `O=C(C1CCN(c2nccc(N3CCC(F)(F)C3=O)n2)CC1)N1OCC[C@H]1c1cnccn1` [Example 58, 3,3-difluoro-1-[2-[4-[(3S)-3-pyrazin-2-yl-1,2-oxazolidine-2-carbonyl]piperidin-1-yl]pyrimidin-4-yl]pyrrolidin-2-one] here?
A: 65 nM

Q: Which IC50 does the source give for `Cc1ncc([C@@H]2CCON2C(=O)C2CCN(c3nccc(N4CCC(C)(C)C4=O)n3)CC2)cc1F` [Example 60, 1-[2-[4-[(3S)-3-(5-fluoro-6-methylpyridin-3-yl)-1,2-oxazolidine-2-carbonyl]piperidin-1-yl]pyrimidin-4-yl]-3,3-dimethylpyrrolidin-2-one] here?
A: 506 nM

Q: `Cc1ncc([C@@H]2CCON2C(=O)C2CCN(c3nccc(N4CCC5(CC5)C4=O)n3)CC2)cc1F` [Example 61, 5-[2-[4-[(3S)-3-(5-fluoro-6-methylpyridin-3-yl)-1,2-oxazolidine-2-carbonyl]piperidin-1-yl]pyrimidin-4-yl]-5-azaspiro[2.4]heptan-4-one] was tested. Which IC50 did it give?
A: 32 nM

Q: `CN1CCN(c2ccnc(N3CCC(C(=O)N4OCC[C@H]4c4cncc(F)c4)CC3)n2)C1=O` [Example 62, 1-[2-[4-[(3S)-3-(5-fluoropyridin-3-yl)-1,2-oxazolidine-2-carbonyl]piperidin-1-yl]pyrimidin-4-yl]-3-methylimidazolidin-2-one] was tested. Which IC50 did it give?
A: 41 nM

Q: For `Cc1ccc([C@@H]2CCON2C(=O)[C@@H]2CCN(c3nccc(N4CCOCC4=O)n3)CC23CC3)cn1` [Example 63, 4-[2-[(8R)-8-[(3S)-3-(6-methylpyridin-3-yl)-1,2-oxazolidine-2-carbonyl]-5-azaspiro[2.5]octan-5-yl]pyrimidin-4-yl]morpholin-3-one], which IC50 is on record?
A: 44 nM

Q: How did the IC50 turn out when `Cc1nccn1-c1nc(N2CCC(C(=O)N3OCC[C@H]3c3cncc(F)c3)CC2)ncc1F` [Example 64, [1-[5-fluoro-4-(2-methylimidazol-1-yl)pyrimidin-2-yl]piperidin-4-yl]-[(3S)-3-(5-fluoropyridin-3-yl)-1,2-oxazolidin-2-yl]methanone] was run?
A: 1 nM

Q: `Cc1ccc([C@@H]2CCON2C(=O)C2CCN(c3nccc(N4CCCC(F)(F)C4=O)n3)CC2)cn1` [Example 66, 3,3-difluoro-1-[2-[4-[(3S)-3-(6-methylpyridin-3-yl)-1,2-oxazolidine-2-carbonyl]piperidin-1-yl]pyrimidin-4-yl]piperidin-2-one] was tested. Which IC50 did it give?
A: 3440 nM

Q: `Cc1ccc([C@@H]2CCON2C(=O)C2CCN(c3nc(-c4ncco4)ncc3F)CC2)cn1` [Example 67, [1-[5-fluoro-2-(1,3-oxazol-2-yl)pyrimidin-4-yl]piperidin-4-yl]-[(3S)-3-(6-methylpyridin-3-yl)-1,2-oxazolidin-2-yl]methanone] was tested. Which IC50 did it give?
A: 135 nM
